Assay results reported in patent publication US4044151A, “Sulfamidophenethanolamine therapeutic process” (Mead Johnson & Company, priority 1975, dated 1977).

Assays:
[1] = test system: beta-adrenergic receptors; test: beta-adrenergic blocking action and its selectivity (cardiac, vascular smooth muscle, metabolic effects); assay type: in vivo; conditions: for relative specificity of beta-adrenergic antagonism, peripheral vasculature versus heart: effects of beta-adrenergic agonists; for level of activity: in vivo

Structure (SMILES) | relative specificity of beta-adrenergic antagonism, peripheral vasculature versus heart [1] | level of activity [1] | anti-arrhythmic activity (anti-arrhythmic activity) | anti-arrhythmic potency relative to procainamide (anti-arrhythmic activity; versus procainamide) [times] | anti-arrhythmic potency relative to quinidine (anti-arrhythmic activity; versus quinidine) [times] | selectivity of beta-adrenergic blocking action, cardiac and smooth muscle versus metabolic effects ([1]; versus anti-hyperglycemia and anti-hyperlactacidemia)
CC(C)NCC(O)c1ccc(NS(N)(=O)=O)cc1 (centres unmarked) [N-[4-(1-hydroxy-2-isopropylaminoethyl)phenyl]sulfamide] | relatively stronger antagonist of the direct cardiac stimulatory effects evoked by beta-adrenergic agonists than of the peripheral vascular smooth muscle | high level of activity | – | – | – | –
CC(C)NCC(O)c1ccc(NS(=O)(=O)N(C)C)cc1 (centres unmarked) [N,N-dimethyl-N'-[4-(1-hydroxy-2-isopropylaminoethyl)phenyl]sulfamide] | relative specificity for antagonism of the effects of beta-adrenergic agonists on the peripheral vasculature | high level of activity | potent anti-arrhythmic agent | 2.6 | 1.3 | relatively selective for cardiac and smooth muscle as opposed to the metabolic effects of anti-hyperglycemia and anti-hyperlactacidemia
